Source: the NIST ThermoML archive (doi:10.1021/je200721d)
± gives the expanded uncertainty stated by the source.

Test: xn = mol fraction of the nth substance listed
Settings: Liquid, Vibrating tube method

CCCCCCCC [octane] + CCCCCC
Settings | mass density [kg/m3]
362.88 K, 4000 kPa, x2 = 0.1654 | 644.35 ± 0.29
362.88 K, 4000 kPa, x2 = 0.2199 | 642.17 ± 0.3
362.88 K, 5000 kPa, x2 = 0.1654 | 645.69 ± 0.3
362.88 K, 5000 kPa, x2 = 0.2199 | 643.54 ± 0.3
362.88 K, 6000 kPa, x2 = 0.1654 | 647.04 ± 0.31
362.88 K, 6000 kPa, x2 = 0.2199 | 644.88 ± 0.31
362.88 K, 7000 kPa, x2 = 0.1654 | 648.35 ± 0.32
362.88 K, 7000 kPa, x2 = 0.2199 | 646.21 ± 0.32
362.88 K, 8000 kPa, x2 = 0.1654 | 649.64 ± 0.33
362.88 K, 8000 kPa, x2 = 0.2199 | 647.53 ± 0.33
362.88 K, 9000 kPa, x2 = 0.1654 | 650.92 ± 0.34
362.88 K, 9000 kPa, x2 = 0.2199 | 648.82 ± 0.34
362.88 K, 10000 kPa, x2 = 0.1654 | 652.16 ± 0.35
362.88 K, 10000 kPa, x2 = 0.2199 | 650.09 ± 0.35
362.88 K, 11000 kPa, x2 = 0.1654 | 653.43 ± 0.36
362.88 K, 11000 kPa, x2 = 0.2199 | 651.35 ± 0.36
362.88 K, 12000 kPa, x2 = 0.1654 | 654.65 ± 0.37
362.88 K, 12000 kPa, x2 = 0.2199 | 652.59 ± 0.37
362.88 K, 13000 kPa, x2 = 0.1654 | 655.84 ± 0.38
362.88 K, 13000 kPa, x2 = 0.2199 | 653.81 ± 0.38
362.88 K, 14000 kPa, x2 = 0.1654 | 657.01 ± 0.39
362.88 K, 14000 kPa, x2 = 0.2199 | 654.99 ± 0.39
362.88 K, 15000 kPa, x2 = 0.1654 | 658.17 ± 0.4
362.88 K, 15000 kPa, x2 = 0.2199 | 656.16 ± 0.4
362.88 K, 16000 kPa, x2 = 0.1654 | 659.3 ± 0.4
362.88 K, 16000 kPa, x2 = 0.2199 | 657.29 ± 0.41
362.88 K, 17000 kPa, x2 = 0.1654 | 660.41 ± 0.41
362.88 K, 17000 kPa, x2 = 0.2199 | 658.42 ± 0.42
362.88 K, 18000 kPa, x2 = 0.1654 | 661.5 ± 0.42
362.88 K, 18000 kPa, x2 = 0.2199 | 659.52 ± 0.43
362.88 K, 19000 kPa, x2 = 0.1654 | 662.58 ± 0.43
362.88 K, 19000 kPa, x2 = 0.2199 | 660.6 ± 0.44
362.88 K, 20000 kPa, x2 = 0.1654 | 663.6 ± 0.44
362.88 K, 20000 kPa, x2 = 0.2199 | 661.65 ± 0.45
362.88 K, 21000 kPa, x2 = 0.1654 | 664.63 ± 0.45
362.88 K, 21000 kPa, x2 = 0.2199 | 662.67 ± 0.46
362.88 K, 22000 kPa, x2 = 0.1654 | 665.63 ± 0.46
362.88 K, 22000 kPa, x2 = 0.2199 | 663.67 ± 0.46
362.88 K, 23000 kPa, x2 = 0.1654 | 666.61 ± 0.47
362.88 K, 23000 kPa, x2 = 0.2199 | 664.66 ± 0.47
362.88 K, 24000 kPa, x2 = 0.1654 | 667.57 ± 0.48
362.88 K, 24000 kPa, x2 = 0.2199 | 665.61 ± 0.48
362.88 K, 25000 kPa, x2 = 0.1654 | 668.52 ± 0.49
362.88 K, 25000 kPa, x2 = 0.2199 | 666.56 ± 0.49
362.89 K, 1000 kPa, x2 = 0.9308 | 599.76 ± 0.29
362.89 K, 2000 kPa, x2 = 0.9308 | 601.55 ± 0.3
362.89 K, 3000 kPa, x2 = 0.9308 | 603.31 ± 0.31
362.89 K, 4000 kPa, x2 = 0.9308 | 605.04 ± 0.32
362.89 K, 5000 kPa, x2 = 0.9308 | 606.72 ± 0.33
362.89 K, 6000 kPa, x2 = 0.9308 | 608.38 ± 0.34
362.89 K, 7000 kPa, x2 = 0.9308 | 610.01 ± 0.35
362.89 K, 8000 kPa, x2 = 0.9308 | 611.58 ± 0.36
362.89 K, 9000 kPa, x2 = 0.9308 | 613.16 ± 0.37
362.89 K, 10000 kPa, x2 = 0.9308 | 614.68 ± 0.38
362.89 K, 11000 kPa, x2 = 0.9308 | 616.17 ± 0.39
362.89 K, 12000 kPa, x2 = 0.9308 | 617.64 ± 0.4
362.89 K, 13000 kPa, x2 = 0.9308 | 619.07 ± 0.41
362.89 K, 14000 kPa, x2 = 0.9308 | 620.48 ± 0.42
362.89 K, 15000 kPa, x2 = 0.9308 | 621.85 ± 0.43
362.89 K, 16000 kPa, x2 = 0.9308 | 623.2 ± 0.44
362.89 K, 17000 kPa, x2 = 0.9308 | 624.51 ± 0.45
362.89 K, 18000 kPa, x2 = 0.9308 | 625.8 ± 0.46
362.89 K, 19000 kPa, x2 = 0.9308 | 627.06 ± 0.47
362.89 K, 20000 kPa, x2 = 0.9308 | 628.28 ± 0.48
362.89 K, 21000 kPa, x2 = 0.9308 | 629.48 ± 0.5
362.89 K, 22000 kPa, x2 = 0.9308 | 630.64 ± 0.51
362.89 K, 23000 kPa, x2 = 0.9308 | 631.79 ± 0.52
362.89 K, 24000 kPa, x2 = 0.9308 | 632.9 ± 0.53
362.89 K, 25000 kPa, x2 = 0.9308 | 634.01 ± 0.55
362.9 K, 1000 kPa, x2 = 0.7995 | 608.76 ± 0.28
362.9 K, 2000 kPa, x2 = 0.7995 | 610.47 ± 0.29
362.9 K, 3000 kPa, x2 = 0.7995 | 612.13 ± 0.3
362.9 K, 4000 kPa, x2 = 0.7995 | 613.77 ± 0.31
362.9 K, 5000 kPa, x2 = 0.7995 | 615.41 ± 0.32
362.9 K, 6000 kPa, x2 = 0.7995 | 616.94 ± 0.33
362.9 K, 7000 kPa, x2 = 0.7995 | 618.5 ± 0.34
362.9 K, 8000 kPa, x2 = 0.7995 | 620.01 ± 0.35
362.9 K, 9000 kPa, x2 = 0.7995 | 621.5 ± 0.36
362.9 K, 10000 kPa, x2 = 0.7995 | 622.96 ± 0.37
362.9 K, 11000 kPa, x2 = 0.7995 | 624.39 ± 0.38
362.9 K, 12000 kPa, x2 = 0.7995 | 625.81 ± 0.39
362.9 K, 13000 kPa, x2 = 0.7995 | 627.18 ± 0.4
362.9 K, 14000 kPa, x2 = 0.7995 | 628.53 ± 0.41
362.9 K, 15000 kPa, x2 = 0.7995 | 629.85 ± 0.42
362.9 K, 16000 kPa, x2 = 0.7995 | 631.14 ± 0.43
362.9 K, 17000 kPa, x2 = 0.7995 | 632.42 ± 0.44
362.9 K, 18000 kPa, x2 = 0.7995 | 633.67 ± 0.45
362.9 K, 19000 kPa, x2 = 0.7995 | 634.88 ± 0.46
362.9 K, 20000 kPa, x2 = 0.7995 | 636.08 ± 0.48
362.9 K, 21000 kPa, x2 = 0.7995 | 637.22 ± 0.49
362.9 K, 22000 kPa, x2 = 0.7995 | 638.34 ± 0.5
362.9 K, 23000 kPa, x2 = 0.7995 | 639.44 ± 0.51
362.9 K, 24000 kPa, x2 = 0.7995 | 640.51 ± 0.52
362.9 K, 25000 kPa, x2 = 0.7995 | 641.57 ± 0.54
